{"source": "patent US20070232492A1", "about": "“Herbicidal Composition” (Ishihara Sangyo Kaisha, LTD., priority 2004, published 2007)", "format_in_all_cases": "in vivo", "key": {"[1]": {"test_system": "barnyardgrass (Echinochloa oryzicola vasing)", "experiment": "Growth inhibition of barnyardgrass in paddy soil pots, application under submerged condition, visual rating (observed value) and Colby expected value", "conditions": "Echinochloa oryzicola, soil, read-out: Growth inhibition rate (%) Observed; for inhibition at 2.3 g/ha: 0.023 g/a; for inhibition at 4.5 g/ha: 0.045 g/a", "in_short": "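Barnyardgrass (Echinochloa oryzicola vasing) seeds were sown in paddy field soil in 1/10,000 are pots and kept irrigated at a water depth of 3.5 cm. Wettable powders of the active ingredients were diluted with water and applied under submerged conditions at the prescribed amounts. Growth was visually scored from 0% (as untreated) to 100% (complete kill), and expected values were calculated with Colby's formula.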"}, "[2]": {"experiment": "Growth inhibition of mixed broadleaf paddy weeds in paddy soil pots, application under submerged condition, visual rating and Colby expected value", "conditions": "mixed broadleaf paddy weeds, soil, 504 h; 0.12 g/a; false pimpernel one leaf-pair stage; 21 days after application; read-out: Growth inhibition rate (%) Observed", "from_the_text": "(§1) When the herbicidal activity in a case where two active ingredients are combined, is larger than the simple sum of the respective herbicidal activities of the two active ingredients (the expected activity), it is called a synergistic effect. The activity expected by the combination of two active ingredients can be calculated as follows (Colby S. R., “Weed”, vol. 15, p. 20-22, 1967). E=p+q−(p×q÷100) where p: growth inhibition rate when treated with x (g/a) of herbicide X,\n(§2) q: growth inhibition rate when treated with y (g/a) of herbicide Y,\n(§3) E: growth inhibition rate expected when treated with x (g/a) of herbicide X and y (g/a) of herbicide Y.\n(§4) Namely, when the actual growth inhibition rate (observed value) is larger than the growth inhibition rate by the above calculation (expected value), the activity by the combination can be regarded as showing a synergistic effect.\n(§5) Growth inhibition rate (%)=0% (equivalent to the non-treated area) to 100% (complete kill)\nPaddy field soil was put into a 1/1,700 are pot, and mixed seeds of false pimpernel (Lindernia pyxidaria), abunome (Dopatrium junceum), long stem waterwort (Elatine triandra SCHK.) and toothcup (Rotala india) were sown and left to stand under an irrigated condition with a water depth of 3.5 cm. When false pimpernel reached one leaf-pair stage, wettable powders of compound A2 and compound (B1.2) were, respectively, diluted with water and applied under submerged condition so that the active ingredients became the prescribed amounts, respectively. The state of growth was visually observed 21 days after application, and evaluation and calculation were carried out in the same manner as in the above Test Example 1.\nPaddy field soil was put into a 1/1,700 are pot, and mixed seeds of false pimpernel (Lindernia pyxidaria), abunome (Dopatrium junceum), long stem waterwort (Elatine triandra SCHK.) and toothcup (Rotala india) were sown and left to stand under an irrigated condition with a water depth of 3.5 cm. When false pimpernel reached two leaf-pair stage, a wettable powder of compound A2 and an emulsifiable concentrate of compound (B8.1) were, respectively, diluted with water and applied under submerged condition so that the active ingredients became the prescribed amounts, respectively. The state of growth was visually observed 22 days after application, and evaluation and calculation were carried out in the same manner as in the above Test Example 1."}, "[3]": {"test_system": "flatsedge (Cyperus serotinus)", "experiment": "Growth inhibition of flatsedge (planted tubers) in paddy soil pots, application under submerged condition, visual rating and Colby expected value", "conditions": "Cyperus serotinus, soil, 696 h, 2.8 to 3.2 leaf stage, 29 days after application, read-out: Growth inhibition rate (%) Observed", "from_the_text": "as §1, §2, §3, §4, §5\n(§6) Paddy field soil was put into a 1/10,000 are pot, and tubers of flatsedge (Cyperus serotinus) were planted and left to stand under an irrigated condition with a water depth of 3.5 cm. When flatsedge reached 2.8 to 3.2 leaf stage, wettable powders of compound A2 and compound (B1.2) were, respectively, diluted with water and applied under submerged condition so that the active ingredients became the prescribed amounts, respectively. The state of growth was visually observed 29 days after application, and evaluation and calculation were carried out in the same manner as in the above Test Example 1.\nPaddy field soil was put into a 1/3,000 are pot, and tubers of flatsedge (Cyperus serotinus) were planted and left to stand under an irrigated condition with a water depth of 3.5 cm. When flatsedge reached 4 leaf stage, a wettable powder of compound A2 and an emulsifiable concentrate of compound C4 were, respectively, diluted with water and applied under submerged condition so that the active ingredients became the prescribed amounts, respectively. The state of growth was visually observed 21 days after application, and the growth inhibition rate (%) evaluated in the same manner as in the above Test Example 1 (observed value) and the growth inhibition rate (%) calculated by the above-mentioned Colby method (expected value) are shown in Table 32.\nas §6, with “2.5” for “2.8”, “3.0” for “3.2”, “A2, compound (D2.3)” for “A2”, “(B4.1)” for “(B1.2)”, “30” for “29”, “evaluated” for “evaluation and calculation were carried out”\nas §6, with “2.5” for “2.8”, “3.0” for “3.2”, “A2, compound (D2.3)” for “A2”, “(B6.1)” for “(B1.2)”, “30” for “29”, “evaluated” for “evaluation and calculation were carried out”\nPaddy field soil was put into a 1/10,000 are pot, and tubers of flatsedge (Cyperus serotinus) were planted and left to stand under an irrigated condition with a water depth of 3.5 cm. When flatsedge reached 2.5 to 3.0 leaf stage, wettable powders of compound A2, compound (D2.3) and compound (B8.1) were, respectively, diluted with water and applied under submerged condition so that the active ingredients became the prescribed amounts, respectively. […]"}, "[4]": {"conditions": "504 h, 3.0 to 3.3 leaf stage, 21 days after application"}, "[5]": {"conditions": "528 h, 2.5 to 3.0 leaf stage, 22 days after application"}}, "note": "Where two headings read alike, the source gives them in different places.", "data": [{"smiles": "COc1cc(OC)nc(NC(=O)NS(=O)(=O)c2c(-c3nnn(C)n3)cnn2C)n1", "note": "[Compound (B1.2), azimsulfuron]", "values": [{"measurement": "inhibition at 2.3 g/ha", "setting": "[1]; [4]", "result": 0, "unit": "%"}, {"measurement": "inhibition at 4.5 g/ha", "setting": "[1]; [4]", "result": 7, "unit": "%"}, {"measurement": "inhibition at 2.3 g/ha", "setting": "[1]; [5]", "result": 0, "unit": "%"}, {"measurement": "inhibition at 4.5 g/ha", "setting": "[1]; [5]", "result": 53, "unit": "%"}, {"measurement": "inhibition at 3 g/ha", "setting": "[1]; 696 h, 0.03 g/a, 2.4 to 3.2 leaf stage, 29 days after application, Test Example 45", "result": 30, "unit": "%"}, {"measurement": "inhibition at 6 g/ha", "setting": "[1]; 696 h, 0.06 g/a, 2.4 to 3.2 leaf stage, 29 days after application, Test Example 45", "result": 57, "unit": "%"}, {"measurement": "inhibition at 7.5 g/ha", "setting": "[1]; 696 h, 0.075 g/a, 2.4 to 3.2 leaf stage, 29 days after application, Test Example 45", "result": 60, "unit": "%"}, {"measurement": "inhibition at 12 g/ha", "setting": "[2]", "result": 60, "unit": "%"}, {"measurement": "inhibition at 1.25 g/ha", "setting": "[3]; 0.0125 g/a", "result": 20, "unit": "%"}, {"measurement": "inhibition at 1.5 g/ha", "setting": "[3]; 0.015 g/a", "result": 33, "unit": "%"}, {"measurement": "inhibition at 1.88 g/ha", "setting": "[3]; 0.0188 g/a", "result": 58, "unit": "%"}]}]}
